This is an account of results in patent US20160090397A1, “Se-Adenosyl-L-Selenohomocysteine Selenoxide As A Modulator Of Methyltransferase And Other Activities” (priority 2014, published 2016).

Data set [1] in a line: Reduction of selenoxide/sulfoxide by thiols and thioethers at ambient temperature (C18 HPLC). It counts as physicochemical. Particulars: for reduction by glutathione (GSH) / reduction by cysteine: ambient temperature; for reduction by glutathione (GSH): C18 HPLC. From the text:
The sulfoxide SAHO analog was not reduced under these biological conditions with glutathione (GSH) or cysteine. The reduction of sulfoxides generally requires more forcing conditions.

Data set [2] addresses T1, catechol-O-methyltransferase (COMT) (Homo sapiens, UniProt P21964).
T1 sequence (P21964 1-271): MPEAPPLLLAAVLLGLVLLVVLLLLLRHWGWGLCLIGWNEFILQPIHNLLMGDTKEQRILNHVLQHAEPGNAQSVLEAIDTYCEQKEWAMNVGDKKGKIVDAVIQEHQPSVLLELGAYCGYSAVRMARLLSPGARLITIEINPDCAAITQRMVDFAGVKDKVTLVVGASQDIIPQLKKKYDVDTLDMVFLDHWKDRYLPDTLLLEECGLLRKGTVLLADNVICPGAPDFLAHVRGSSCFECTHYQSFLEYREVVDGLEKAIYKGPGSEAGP
Kind of data set: Reduction upon incubation with methyltransferase COMT. It counts as biochemical. Here is the method: (§1) However, SeAHO was not reduced upon incubation with the non-methyltransferase protein lysozyme (data not shown). […] The reduction of SeAHO by methyltransferases may result in the oxidation or modification of these enzymes. This property could be exploited to identify methyltransferases that are reactive with SeAHO, or, depending on the site of oxidation, this process may modulate the activities of methyltransferases. In other words, SeAHO may act as a covalent inhibitor (reactive or suicide inhibitor) or activator of these methyltransferases.

In data set [3] the target is T1, catechol-O-methyltransferase (COMT). Particulars: in vitro; cited from earlier work.
Data set [4] addresses T2, phenylethanolamine N-methyltransferase (PNMT) (Homo sapiens, UniProt P11086).
T2 sequence (P11086 1-282): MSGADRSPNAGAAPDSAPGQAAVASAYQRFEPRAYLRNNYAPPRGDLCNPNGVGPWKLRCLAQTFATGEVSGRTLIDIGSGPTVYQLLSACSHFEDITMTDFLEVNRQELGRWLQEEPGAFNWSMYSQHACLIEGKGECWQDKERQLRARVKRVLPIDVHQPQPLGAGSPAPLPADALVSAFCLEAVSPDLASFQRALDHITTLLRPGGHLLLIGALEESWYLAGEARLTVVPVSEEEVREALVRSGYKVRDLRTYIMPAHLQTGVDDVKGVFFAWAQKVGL
The note with it: in vitro; cited from earlier work.

Data set [5] addresses histamine N-methyltransferase (HMT) (Homo sapiens, UniProt P50135). Particulars: in vitro; cited from earlier work.
In data set [6] the target is protein methyltransferase II (Homo sapiens, UniProt P22061). The note with it: in vitro; cited from earlier work.
Data set [7] concerns viral mRNA methyltransferases. The note with it: in vitro; cited from earlier work.
In data set [8] the target is E. coli cyclopropane fatty acid synthase (Escherichia coli, UniProt P0A9H7). Particulars: in vitro; cited from earlier work.
Data set [9] is described as follows: Stability of SeAHO in aqueous solutions (HPLC, proton NMR). The class given is physicochemical. Here is the method: Characterization of selenoxide SeAHO in an aqueous environment was of greater biological significance.
The selenoxide SeAHO generally appeared to be a 60:40 mixture by ^1H NMR in 50 mM phosphate buffers of D2O at measured pH's of 3 and 7.

For data set [10], the target named is T3, thiopurine methyltransferase (TPMT) (Homo sapiens, UniProt P51580).
T3 sequence (P51580 1-245): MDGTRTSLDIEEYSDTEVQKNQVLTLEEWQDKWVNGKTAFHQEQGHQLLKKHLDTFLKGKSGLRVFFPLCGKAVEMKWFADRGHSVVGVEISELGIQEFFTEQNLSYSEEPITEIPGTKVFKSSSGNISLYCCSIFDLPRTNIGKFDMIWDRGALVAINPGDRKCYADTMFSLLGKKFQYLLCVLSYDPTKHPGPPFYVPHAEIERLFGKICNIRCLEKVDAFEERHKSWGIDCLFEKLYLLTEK
The data set is described as follows: Reduction upon incubation with methyltransferase TPMT. The class given is biochemical. Here is the method: as §1

The test system of a further data set is lysozyme. The data set is described as follows: Incubation with non-methyltransferase protein lysozyme. It counts as biochemical. The note with it: data not shown. As for the experimental part:
as §1

The target of data set [11] is T1, catechol-O-methyltransferase (COMT). Kind of data set: COMT-catalysed oxidation of epinephrine to adrenochrome with SeAHO. It counts as biochemical. The note with it: various COMT concentrations. From the text:
This reactivity (redox reaction) conferred by SeAHO can be exploited to oxidize substrate compounds in a selective and specific manner.

The target in data set [12] is T3, thiopurine methyltransferase (TPMT). The data set is described as follows: Oxidation of thionitrobenzoate (TNB), Se-SAHO as TPMT substrate (absorbance). The class given is biochemical. An excerpt:
FIG. 1 depicts an absorbance spectrum for Se—SAHO as a thiopurine methyltransferase (TPMT) substrate wherein the oxidation of thionitrobenzoate (TNB) by H2O2 causes a clear shift in absorbance maxima from ˜410 nm to ˜325 nm.

“Also recorded” adds a separate entry of the source.

histamine N-methyltransferase (HMT), sequence (P50135 whole entry, species assumed): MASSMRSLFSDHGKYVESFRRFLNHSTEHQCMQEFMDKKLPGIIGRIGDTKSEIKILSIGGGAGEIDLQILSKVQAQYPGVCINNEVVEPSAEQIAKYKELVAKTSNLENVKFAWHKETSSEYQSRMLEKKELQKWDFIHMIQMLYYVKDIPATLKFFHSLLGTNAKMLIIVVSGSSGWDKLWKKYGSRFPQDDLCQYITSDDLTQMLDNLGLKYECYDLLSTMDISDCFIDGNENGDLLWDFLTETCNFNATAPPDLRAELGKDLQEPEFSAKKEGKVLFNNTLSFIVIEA
E. coli cyclopropane fatty acid synthase, sequence (P0A9H7 whole entry): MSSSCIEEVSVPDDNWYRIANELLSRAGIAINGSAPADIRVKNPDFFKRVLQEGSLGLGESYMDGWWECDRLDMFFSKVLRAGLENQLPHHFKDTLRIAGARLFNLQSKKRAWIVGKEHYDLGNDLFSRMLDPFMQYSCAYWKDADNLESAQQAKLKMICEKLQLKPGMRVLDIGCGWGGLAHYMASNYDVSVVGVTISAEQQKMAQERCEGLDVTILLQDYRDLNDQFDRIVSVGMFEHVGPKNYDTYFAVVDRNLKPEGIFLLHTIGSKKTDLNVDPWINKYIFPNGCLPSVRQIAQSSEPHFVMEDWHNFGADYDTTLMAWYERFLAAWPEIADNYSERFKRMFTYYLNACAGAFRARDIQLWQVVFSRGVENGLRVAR
protein methyltransferase II, sequence (P22061 whole entry): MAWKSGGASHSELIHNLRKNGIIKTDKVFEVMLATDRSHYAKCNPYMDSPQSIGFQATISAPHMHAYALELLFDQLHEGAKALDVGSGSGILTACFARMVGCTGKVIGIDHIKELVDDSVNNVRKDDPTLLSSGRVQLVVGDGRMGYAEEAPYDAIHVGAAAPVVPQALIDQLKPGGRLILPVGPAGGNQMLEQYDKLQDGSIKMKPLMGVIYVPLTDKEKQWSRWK

With `Nc1ncnc2c1ncn2[C@@H]1O[C@H](C[S+]([O-])CC[C@H](N)C(=O)O)[C@@H](O)[C@H]1O` (some centres unmarked) [SAHO], the “reduction by glutathione (GSH)” value in data set [1] is “not reduced”. Further, the reduction by cysteine result in data set [1] (data not shown) is recorded as “not reduced”. Besides, in [2], the “reduction upon incubation with COMT” value was “remains oxidized”. Besides, in data set [3], the “inhibition of COMT” value is “inhibitor”. Also, the “inhibition of PNMT” value in data set [4] is “inhibitor”. Besides, the “inhibition of HMT” value in data set [5] is on record as “inhibitor”. Further, the “inhibition of protein methyltransferase II” value in data set [6] is “inhibitor”. Further, the “inhibition of viral mRNA methyltransferases” value in [7] was “inhibitor”. For the same molecule, the “inhibition of E. coli cyclopropane fatty acid synthase” value in [8] is “inhibitor”.

On to `Nc1ncnc2c1ncn2[C@@H]1O[C@H](C[Se](=O)CC[C@H](N)C(=O)O)C(O)[C@@H]1O` (some centres unmarked) [SeAHO, Se-Adenosylselenohomocysteine selenoxide], for which the “decomposition by HPLC” value in [9] (after 2 weeks or when prepared in pure deionized water) is “some decomposition was observed”. The “decomposition by NMR” value in data set [9] (pH 12 phosphate buffer) is “only a very small amount of decomposition was observed”. In addition, the “stability to hydrolysis of the C1′-adenine bond / degradation” value in [9] (phosphate buffered aqueous solutions, pH 3-12, ambient temperature, at least three hours, HPLC or proton NMR) is “completely stable”. For the same molecule, the “reduction by glutathione (GSH)” value in data set [1] is “readily reduced”. In addition, in [1] (data not shown), the reduction by cysteine result is recorded as “also reduced; also recorded: readily reduced” and the “reduction by thioether methionine” value was “not by thioethers methionine”. In addition, the “reduction upon incubation with COMT” value in data set [2] is “reduced to Se-adenosyl-L-selenohomocysteine (SeAH)”. Besides, in data set [10], the “reduction upon incubation with TPMT” value is reported as “reduced to Se-adenosyl-L-selenohomocysteine (SeAH)”. In addition, the “reduction upon incubation with lysozyme” value in the data set with lysozyme was “not reduced”. In addition, in data set [11], the “COMT-catalysed oxidation of epinephrine to adrenochrome” value is “reacts with epinephrine to form adrenochrome at a rate dependent on COMT concentration; also recorded: catalyzes the oxidation of epinephrine with SeAHO and the production of adrenochrome and SeAH”.

As to “Se-Adenosylselenohomocysteine selenoxide [SeAHO]”, the “oxidation of TNB (shift in absorbance maxima)” value in data set [12] was “able to oxidize TNB”.
